Results taken from US6407067B1, “Salts of thrombin inhibitors” (BASF Aktiengesellschaft, priority 1999, dated 2002).

Assays:
[1] = Crystallinity assessed by Debye-Scherrer photographs; type: physicochemical; settings: isolated solid
Text: The crystallinity of the samples has been assessed on the basis of Debye-Scherrer photographs.

[2] = Stability test (storage at 70° C., 1 bar, content by HPLC); type: physicochemical
Protocol: The thermal decomposition of the compounds of the general formula I and II has been investigated in a stability test. […]
The substances were stored at 70° C., 1 bar. Measurements were in HPLC % areas

| Compound | Debye-Scherrer photograph (crystallinity) [1] | Stability on storage in an open vessel (relative content by HPLC) ([2]; 0 days) [HPLC % areas] | Stability on storage in an open vessel (relative content by HPLC) ([2]; 7 days) | Stability on storage in an open vessel (relative content by HPLC) ([2]; 14 days) |
| --- | --- | --- | --- | --- |
| CC1=CC(=O)NS(=O)(=O)O1.N=C(N)c1ccc(CNC(=O)[C@@H]2C=CCN2C(=O)[C@@H](CC2CCCCC2)NCC(=O)O)cn1 [Acesulfame salt, N-((Hydroxycarbonyl)methylene)-(R)-cyclohexylalanyl-(S)-3,4-dehydroproline 6-Amidino-3-picolinylamide Acesulfamate] | crystalline | 100 | 96,7 HPLC % areas | 88,4 HPLC % areas |
| CC(=O)O.N=C(N)c1ccc(CNC(=O)[C@@H]2C=CCN2C(=O)[C@@H](CC2CCCCC2)NCC(=O)O)cn1 [Acetate, N-((Hydroxycarbonyl)methylene)-(R)-cyclohexylalanyl-(S)-3,4-d ehydroproline 6-Amidino-3-picolinylamide Acetate] | amorphous | 100 | 92.6 HPLC % areas | 87.2 HPLC % areas |
| N=C(N)c1ccc(CNC(=O)[C@@H]2C=CCN2C(=O)[C@@H](CC2CCCCC2)NCC(=O)O)cn1.O=C(O)/C=C/C(=O)O [Fumarate, N-((hydroxycarbonyl)methylene)-(R)-cyclohexylalanyl-(S)-3,4-dehydroproline 6-Amidino-3-picolinylamide Fumarate] | amorphous | 100 | 87.9 HPLC % areas | 87.1 HPLC % areas |
| N=C(N)c1ccc(CNC(=O)[C@@H]2C=CCN2C(=O)[C@@H](CC2CCCCC2)NCC(=O)O)cn1.O=C1NS(=O)(=O)c2ccccc21 [Saccharin salt, N-((Hydroxycarbonyl)methylene)-(R)-cyclohexylalanyl-(S)-3,4-dehydroproline 6-Amidino-3-picolinylamide Saccharinate] | crystalline | 100 | 100 HPLC % areas | 101 HPLC % areas |
| N-((Hydroxycarbonyl)methylene)-(R)-cyclohexylalanyl-(S)-3,4-dehydroproline 6-Amidino-3-picolinylamide (Betaine) [1st Example] | amorphous |  |  |  |
